Experimental data as given in article PMC8293625, “HLA class-I-peptide stability mediates CD8^+ T cell immunodominance hierarchies and facilitates HLA-associated immune control of HIV” (Cell Reports, 2021).
Read-outs that look alike come from different tables or passages of the source.

Columns and labels:
[1] = biological target: HLA-A*0301 (Homo sapiens, UniProt P04439); test: Cell-based HLA class I-peptide concentration-based stability assay (TAP-deficient mono-allelic 721.221 cells); settings: HLA A*03 mono-allelic TAP-deficient 721.221 cells, relative anti-HLA MFI; for Relative HLA MFI (10 uM): peptide 10 uM; for Relative HLA MFI (100 uM): peptide 100 uM
Description: (§1) Controls without peptide, but the corresponding concentration of DMSO, were performed in parallel.

[2] = system: HLA class-I alleles A*0101, A*0201, A*0301, A*2402, B*0702, B*0801, B*1402, B*1501, B*2705, B*3501, B*3901, B*4001, B*4402, B*5201, B*5701, B*5801, B*8101 …; type: cell-based, human; settings: relative anti-HLA MFI; for Relative HLA MFI (10 uM): peptide 10 uM; for Relative HLA MFI (100 uM): peptide 100 uM
[3] = biological target: HLA-B*5701 (Homo sapiens, UniProt P01889, D201E/D98Y/E176V/E187L/E204Q/E69M/E70A/G107R/I90N/K202T/L105A/L119I/N104I/N87E/Q89R/Q94S/R106L/R155S/R180L/R86G/S101N/S121V/S35A/S48A/T118I/V36M/Y140S/Y91M); test: Cell-based HLA class I-peptide concentration-based stability assay (TAP-deficient mono-allelic 721.221 cells); settings: section B*57, TAP-deficient mono-allelic 721.221 cells, relative anti-HLA MFI; for Relative HLA MFI (10 uM): peptide 10 uM; for Relative HLA MFI (100 uM): peptide 100 uM
Description: as §1

[4] = biological target: HLA-B*0702 (Homo sapiens, UniProt P01889); test: as above; settings: HLA B*07 mono-allelic TAP-deficient 721.221 cells, relative anti-HLA MFI; for Relative HLA MFI (10 uM): peptide 10 uM; for Relative HLA MFI (100 uM): peptide 100 uM
[5] = biological target: HLA-B*8101 (Homo sapiens, UniProt P01889, A269T/D138N/E176V/R180L/T167S/W171L); test: as above; settings: relative anti-HLA MFI; for Relative HLA MFI (10 uM): section B*81, peptide 10 uM; for Relative HLA MFI (100 uM): section B*81, peptide 100 uM
HLA-B*8101, sequence (P01889 25-362 D138N/T167S/W171L/E176V/R180L/A269T limits assumed): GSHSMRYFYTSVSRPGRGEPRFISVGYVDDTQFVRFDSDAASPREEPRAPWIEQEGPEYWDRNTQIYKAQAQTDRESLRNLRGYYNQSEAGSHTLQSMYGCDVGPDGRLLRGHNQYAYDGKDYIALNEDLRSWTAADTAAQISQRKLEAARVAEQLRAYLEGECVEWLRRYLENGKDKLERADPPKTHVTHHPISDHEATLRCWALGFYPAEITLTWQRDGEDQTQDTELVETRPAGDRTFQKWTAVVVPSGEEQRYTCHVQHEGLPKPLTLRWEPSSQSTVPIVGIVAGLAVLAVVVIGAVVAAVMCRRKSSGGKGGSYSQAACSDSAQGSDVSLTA

[6] = HLA A*02 mono-allelic TAP-deficient 721.221 cells
[7] = HLA B*08 mono-allelic TAP-deficient 721.221 cells
[8] = HLA B*15 mono-allelic TAP-deficient 721.221 cells
[9] = HLA B*39 mono-allelic TAP-deficient 721.221 cells
[10] = HLA B*35 mono-allelic TAP-deficient 721.221 cells
[11] = HLA B*40 mono-allelic TAP-deficient 721.221 cells
[12] = HLA B*27 mono-allelic TAP-deficient 721.221 cells
[13] = HLA B*14 mono-allelic TAP-deficient 721.221 cells
[14] = HLA A*01 mono-allelic TAP-deficient 721.221 cells

AIFQSSMTK [ATK9]
Relative HLA MFI (10 uM) [1]: 0.3479 | Relative HLA MFI (100 uM) [1]: 0.6619

AIIRILQQL [AL9]
Relative HLA MFI (10 uM) [2, 6]: 0.2439 | Relative HLA MFI (100 uM) [2, 6]: 0.5341 | Relative HLA MFI (10 uM) [3]: 0 | Relative HLA MFI (100 uM) [3]: 0.004343

AVDLSHFLK [ALK9]
Relative HLA MFI (10 uM) [1]: 0.274 | Relative HLA MFI (100 uM) [1]: 0.7814

AVFIHNFKRK [AK10]
Relative HLA MFI (10 uM) [1]: 0.265 | Relative HLA MFI (100 uM) [1]: 1

AVRHFPRIW [AW9]
Relative HLA MFI (10 uM) [3]: 0.4343 | Relative HLA MFI (100 uM) [3]: 0.7818

ERILSTYLGR [ER10]
Relative HLA MFI (10 uM) [1]: 0.09869 | Relative HLA MFI (100 uM) [1]: 0.5827

FPRIWLHGL [FL9 (Vpr)]
Relative HLA MFI (10 uM) [4]: 0.2812 | Relative HLA MFI (100 uM) [4]: 0.7264

FPRIWLHGL [FL9]
Relative HLA MFI (10 uM) [5]: 0.69 | Relative HLA MFI (100 uM) [5]: 1

FPVTPQVPL [FL9 (Nef)]
Relative HLA MFI (10 uM) [4]: 0.348 | Relative HLA MFI (100 uM) [4]: 0.9848

FPVTPQVPLR [FR10]
Relative HLA MFI (10 uM) [4]: 0.1079 | Relative HLA MFI (100 uM) [4]: 0.5897

FSPEVIPMF [FF9]
Relative HLA MFI (10 uM) [3]: 0.003257 | Relative HLA MFI (100 uM) [3]: 0.02714

GAFDLSFFL [GL9]
Relative HLA MFI (10 uM) [4]: 0.1155 | Relative HLA MFI (100 uM) [4]: 0.2918 | Relative HLA MFI (10 uM) [2, 6]: 0.2773 | Relative HLA MFI (100 uM) [2, 6]: 0.6097 | Relative HLA MFI (10 uM) [2, 7]: 0.3886 | Relative HLA MFI (100 uM) [2, 7]: 0.8634 | Relative HLA MFI (10 uM) [2, 8]: 0.06703 | Relative HLA MFI (100 uM) [2, 8]: 0.1423 | Relative HLA MFI (10 uM) [2, 9]: 0.6524 | Relative HLA MFI (100 uM) [2, 9]: 1

HMYISKKAK [HK9]
Relative HLA MFI (10 uM) [1]: 0.2644 | Relative HLA MFI (100 uM) [1]: 0.8145

HPRVSSEVHI [HI10]
Relative HLA MFI (10 uM) [4]: 0.007599 | Relative HLA MFI (100 uM) [4]: 0.6565

HPVHAGPIA [HA9]
Relative HLA MFI (10 uM) [4]: 0.3541 | Relative HLA MFI (100 uM) [4]: 0.8359 | Relative HLA MFI (10 uM) [2, 10]: 0.57 | Relative HLA MFI (100 uM) [2, 10]: 0.8723

HTQGYFPDWQ [HQ10]
Relative HLA MFI (10 uM) [3]: 0.03149 | Relative HLA MFI (100 uM) [3]: 0.01629

IATESIVIW [IAW9]
Relative HLA MFI (10 uM) [3]: 0.4853 | Relative HLA MFI (100 uM) [3]: 1

IPRRIRQGL [IL9]
Relative HLA MFI (10 uM) [4]: 0.3754 | Relative HLA MFI (100 uM) [4]: 1 | Relative HLA MFI (10 uM) [2, 10]: 0.6542 | Relative HLA MFI (100 uM) [2, 10]: 0.68 | Relative HLA MFI (10 uM) [2, 11]: 0.518 | Relative HLA MFI (100 uM) [2, 11]: 0.8038

ISKKAKGWF [IF9]
Relative HLA MFI (10 uM) [3]: 0.4093 | Relative HLA MFI (100 uM) [3]: 0.557

IVLPEKDSW [IW9 (RT)]
Relative HLA MFI (10 uM) [3]: 0.4821 | Relative HLA MFI (100 uM) [3]: 0.7481

KAFSPEVI [KI8]
Relative HLA MFI (10 uM) [3]: 0.06623 | Relative HLA MFI (100 uM) [3]: 0.2215

KAIGTVLV [KV8]
Relative HLA MFI (10 uM) [3]: 0.05212 | Relative HLA MFI (100 uM) [3]: 0

KTKPPLPSVKK [KK11]
Relative HLA MFI (10 uM) [1]: 0.3455 | Relative HLA MFI (100 uM) [1]: 0.9676

LGHGVSIEW [LW9]
Relative HLA MFI (10 uM) [3]: 0 | Relative HLA MFI (100 uM) [3]: 0.005429

LRPMTYKAA [LA9]
Relative HLA MFI (10 uM) [5]: 0.0372 | Relative HLA MFI (100 uM) [5]: 0.09141 | Relative HLA MFI (10 uM) [2, 12]: 0.09012 | Relative HLA MFI (100 uM) [2, 12]: 0.09773

LTFGWCFKL [LL9]
Relative HLA MFI (10 uM) [3]: 0 | Relative HLA MFI (100 uM) [3]: 0

QAVRIIKILY [QY10]
Relative HLA MFI (10 uM) [3]: 0 | Relative HLA MFI (100 uM) [3]: 0

RGPGRAFVTI [RI10]
Relative HLA MFI (10 uM) [4]: 0.02584 | Relative HLA MFI (100 uM) [4]: 0.4954 | Relative HLA MFI (10 uM) [2, 6]: 0.001172 | Relative HLA MFI (100 uM) [2, 6]: 0.4741 | Relative HLA MFI (10 uM) [2, 12]: 0.4976 | Relative HLA MFI (100 uM) [2, 12]: 0.7237

RIRTWKSLVK [RK10]
Relative HLA MFI (10 uM) [1]: 0.3155 | Relative HLA MFI (100 uM) [1]: 0.8607

RLRDLLLIVTR [RR11]
Relative HLA MFI (10 uM) [1]: 0 | Relative HLA MFI (100 uM) [1]: 0.02843

RPAEPVPLQL [RL10]
Relative HLA MFI (10 uM) [4]: 0.196 | Relative HLA MFI (100 uM) [4]: 0.848

SPAIFQSSM [SM9]
Relative HLA MFI (10 uM) [4]: 0 | Relative HLA MFI (100 uM) [4]: 0.1337

SPRTLNAWV [SV9]
Relative HLA MFI (10 uM) [4]: 0 | Relative HLA MFI (100 uM) [4]: 0.114

STTVKAACWW [SW10]
Relative HLA MFI (10 uM) [3]: 0.3518 | Relative HLA MFI (100 uM) [3]: 0.4995

TPGPGVRYPL [TL10]
Relative HLA MFI (10 uM) [4]: 0 | Relative HLA MFI (100 uM) [4]: 0.1231

TPVNIIGRNML [TL11]
Relative HLA MFI (10 uM) [5]: 0.7114 | Relative HLA MFI (100 uM) [5]: 0.9995

VLEWRFDSRL [VL10]
Relative HLA MFI (10 uM) [2, 6]: 0.04901 | Relative HLA MFI (100 uM) [2, 6]: 0.4134

VPLDEDFRKY [VY10]
Relative HLA MFI (10 uM) [2, 10]: 0.6747 | Relative HLA MFI (100 uM) [2, 10]: 0.7772

VPVWKEATTTL [VL11]
Relative HLA MFI (10 uM) [2, 10]: 0.5193 | Relative HLA MFI (100 uM) [2, 10]: 0.6924

VRMYSPTSI [VI9]
Relative HLA MFI (10 uM) [2, 13]: 0.1203 | Relative HLA MFI (100 uM) [2, 13]: 0

VTDSQYALGI [VI10]
Relative HLA MFI (10 uM) [2, 8]: 0.2539 | Relative HLA MFI (100 uM) [2, 8]: 0.3145

WPTVRERM [WM8]
Relative HLA MFI (10 uM) [2, 7]: 0.08175 | Relative HLA MFI (100 uM) [2, 7]: 0.02576

WRFDSRLAF [WF9]
Relative HLA MFI (10 uM) [2, 10]: 0.3891 | Relative HLA MFI (100 uM) [2, 10]: 0.3599

WRFDSRLAFH [WH10]
Relative HLA MFI (10 uM) [2, 14]: 0.02411 | Relative HLA MFI (100 uM) [2, 14]: 0.1796

YTPGPGIRY [YY9]
Relative HLA MFI (10 uM) [3]: 0 | Relative HLA MFI (100 uM) [3]: 0
